Assay results published in BigSolDB 2.1.

CC(C)(C#N)N=NC(C)(C)C#N
Settings	solubility (mole fraction)
in acetone, 278.15 K	0.0518
in acetone, 283.45 K	0.062
in acetone, 288.75 K	0.0741
in acetone, 293.05 K	0.0881
in acetone, 297.85 K	0.106
in acetone, 302.95 K	0.127
in acetone, 307.95 K	0.145
in acetone, 312.75 K	0.176
in acetone, 318.05 K	0.209
in acetone, 322.75 K	0.236
in benzene, 279.25 K	0.0254
in benzene, 283.75 K	0.0311
in benzene, 290.05 K	0.0411
in benzene, 293.65 K	0.049
in benzene, 298.05 K	0.0603
in benzene, 303.25 K	0.077
in benzene, 307.95 K	0.0938
in benzene, 312.65 K	0.119
in benzene, 317.65 K	0.151
in benzene, 322.25 K	0.181
in ethanol, 278.55 K	0.00263
in ethanol, 284.35 K	0.00408
in ethanol, 288.95 K	0.00511
in ethanol, 293.15 K	0.00667
in ethanol, 297.85 K	0.00938
in ethanol, 302.95 K	0.0128
in ethanol, 307.65 K	0.0165
in ethanol, 312.55 K	0.0221
in ethanol, 317.65 K	0.0314
in ethanol, 322.55 K	0.0427
in ethyl acetate, 278.15 K	0.0349
in ethyl acetate, 282.85 K	0.0424
in ethyl acetate, 287.75 K	0.053
in ethyl acetate, 293.65 K	0.0669
in ethyl acetate, 298.35 K	0.0821
in ethyl acetate, 303.15 K	0.0959
in ethyl acetate, 307.85 K	0.119
in ethyl acetate, 312.95 K	0.144
in ethyl acetate, 317.95 K	0.175
in ethyl acetate, 322.95 K	0.206
in methanol, 268.15 K	0.0034
in methanol, 273.15 K	0.00441
in methanol, 278.15 K	0.00567
in methanol, 283.15 K	0.00738
in methanol, 288.15 K	0.00942
in methanol, 293.15 K	0.0124
in methanol, 298.15 K	0.0162
in methanol, 303.15 K	0.0212
in methanol, 308.15 K	0.0277
in methanol, 313.15 K	0.0364
in methanol, 318.15 K	0.0479
in methanol, 323.15 K	0.0637
